# Patent US20230042830A1, “COMPOSITIONS AND METHODS FOR GENERATION OF RETINAL GANGLION CELLS FROM INDUCIBLE PLURIPOTENT STEM CELLS FOR THE TREATMENT OF PROGRESSIVE OPTIC NEUROPATHIES, INCLUDING GLAUCOMA” (THE TRUSTEES OF THE UNIVERSITY OF PENNSYLVANIA, priority 2021, published 2023)
# What was measured:
# [1] = tested on: iPSC-RGC cultures; experiment: Flow cytometry analysis of iPSC-RGC cultures (CD90/Thy-1, Brn-3b, RBPMS, SNCG); assay type: cell-based, human; details: flow cytometry after 35 days in vitro, three independent iPSC lines
# Protocol: iPSCs were cultured on 0.1% gelatinized plates containing iMEFs in 37° C. 5% O2 and 5% CO2 conditions. Cells were maintained until approximately 75% confluence, then feeder cells were depleted and approximately 1.5×10^6 iPSCs were seeded in one well of 6-well tissue culture dish (Corning) coated with 1:100 diluted growth factor reduced Matrigel. iPSCs were maintained in iPSC: MEF-conditioned medium (80:20)+20 ng/mL of bFGF and 5 ng/ml of stable bFGF. The MEF-conditioned media was prepared by plating iMEFs onto 0.1% gelatin at a density of 20,000 cells/cm^2 in iPSC media. […] On day 16 of differentiation, seven conditions—1) L, 2) X, 3) 1.5 μM CHIR99021 (CHIR) (Wnt agonist; SelleckChem), 4) LX, 5) LSB, 6) LSB-CHIR and 7) LSBX were evaluated for RPC and RGC markers on day 23. Cultures from the following four conditions—1) LSBX, 2) LSB, 3) LX, and 4) 1.5 μM CHIR99021 (CHIR) (Wnt agonist; SelleckChem) were further evaluated at 35. An additional five conditions—1) L only, 2) X only, 3) LSB, 4) LSBX, and 5) LSB-CHIR were evaluated for RPC markers on day 23 to evaluate for transcript expression differences across different conditions in RPCs. […]
# [2] = tested on: SIRT1 pathway; details: mouse models of optic neuritis and optic nerve trauma; cited from earlier work
# [3] = tested on: sonic hedgehog; experiment: RGC induction with SHH or SAG; assay type: cell-based, human; details: 100 nM, day 22-23
# Protocol: Prior to RGC differentiation, medium was changed daily using RGC induction media containing SHH (sonic hedgehog) (250 ng/mL; R&D systems) or SAG (100 nM; Tocris), SHH was replaced with SAG after establishing equal competence, FGF8 (100 ng/mL, R&D systems) for two days. For RGC differentiation (see FIGS. 1D and 2B for kinetics), on day 24, cells were manually crossed into small clusters with Leibovitz's medium containing […] Glucose using the crosshatching technique as previously described (Espuny-Camacho et al., 2013), then replated at a density of 1.0×10^5 cells/well of 6-well plate coated with 1:100 diluted growth factor reduced Matrigel in RGCs induction media containing: Follistatin 300 (100 ng/ml), cyclopamine (0.5 uM, Tocris), DAPT (3 uM, Tocris), and 4.2 μM Rock inhibitor (Y27632). Media was changed 24 h post-plating with RGC induction media containing: Follistatin 300 (100 ng/ml) and DAPT (3 uM), daily for two days. From day 27, media was changed to RGC induction media containing: DAPT (3 uM, Tocris), 10 μM Rock inhibitor (Y27632), forskolin (5 uM; SelleckChem), cAMP (400 uM; Sigma-Aldrich), BDNF (40 ng/mL; R&D systems), NT4 (5 ng/mL; R&D systems), and CNTF (10 ng/mL; R&D systems). Media was changed every 2-3 days until day 36. […]
structure (smiles),measurement,setting,value
"Cc1c[nH]c(-c2cnc(NCCNc3ccc(C#N)cn3)nc2-c2ccc(Cl)cc2Cl)n1 [CHIR, CHIR99021]",Thy-1 (CD90) positive cells,[1],22.5%
Oc1ccc(C=Cc2cc(O)cc(O)c2)cc1 [resveratrol],visual function and RGC survival,[2],preserves visual function and RGC survival
CNC1CCC(N(Cc2cccc(-c3ccncc3)c2)C(=O)c2sc3ccccc3c2Cl)CC1 (stereo not drawn) [SAG],RGC induction compared with SHH,[3],no difference in RGC induction changes
